In PMC8802628, “Selective activation of PFKL suppresses the phagocytic oxidative burst” (Cell, 2021):
Where “and” joins values, the source holds several entries; their conditions need not be identical. Equal values may be shown once. Entries after “also recorded” stand apart in the source; their conditions may differ.

Legend:
PMNs = assay: ROS detection assay (ROS-Glo) in neutrophils; format: cell-based, human; conditions: for PMA-induced ROS production: 50 nM PMA
Description: ROS were measured using the ROS-Glo bioluminescent assay (Promega) for the direct detection of H2O2. Briefly, neutrophils (2 × 10^4) were plated in white 96-well plates (Greiner) in high glucose DMEM medium. Cells were cultured with DMSO vehicle, 0.5 μM NA-11, 5 μM LDC7559, 100 μM apocynin, or 200 μM thionicotinamide for 30 min, and then stimulated with 50 nM PMA or treated with 10 μg/mL zymosan beads, pre-opsonized in 20% serum for 30 min. Luminescence, after the addition of H2O2 substrate solution of 20 min, and then ROS-Glo detection solution for 20 min, was recorded on a plate reader (Envision).

[1] = test system: human peripheral blood neutrophils; assay: NETosis assay in human neutrophils (SYTOX Green, DNA area); format: cell-based; conditions: for inhibition of PMA-induced NETosis: SAR analogs compared to LDC7559; for fold more potent than LDC7559, inhibition of NETosis: compared to LDC7559
Description: Freshly purified neutrophils were plated at 6 × 10^3 cells/well in glass bottom 96-well plates (SensoPlate, Greiner Bio-One 82050-792) in the RPMI medium described above. Cells were pretreated with DMSO vehicle, 0.5 μM NA-11, 100 μM apocynin, 0.5 μM and 5 μM PALP, or 0.5 μM and 5 μM LDC7559 for 30 min, and then stimulated with 50 nM PMA, 1 μM f-MLP, 5 μg/mL cholesterol crystals, 10 μg/mL LPS, 25 μM nigericin, or 25 μM calcymicin (A23187) for 3 h (except in Figures S1A, 6A and S7C, where cells were stimulated for 4 h). Cells were fixed and permeabilized in 2.5% paraformaldehyde (PFA) and 0.02% Triton X-100 in PBS for 30 min. For quantification of NETosis, cells were stained with 150 nM SYTOX Green and imaged in a KEYENCE Fluorescence Microscope (KEYENCE, ZB-X800E) at 10 x magnification. For immunolabeling, fixed cells were blocked with 2% BSA for 1 h, and then stained with anti-CitH3 and anti-MPO antibodies at a dilution of 1/200 in 1% BSA in PBS. Images were taken at 60 x magnification using an ImageXpress Micro Confocal high-content imaging system (Molecular Devices).
Semi-automated analysis of both phase and fluorescence images of SYTOX Green-stained neutrophils used a specialized MATLAB algorithm. Total cells were counted by scoring phase standard deviation and radial symmetry. NETosis was classified in cells by measuring the DNA area in the fluorescence image and comparing with a select internal training set for each experiment. Unstimulated cells and PMA-stimulated, […] cells served as negative controls. PMA-stimulated cells served as a positive control. NET-forming cells are presented as a percentage of total cells.

[2] = test system: human peripheral blood neutrophils; assay: as above; format: cell-based

| SMILES | PMA-induced ROS production (PMNs) | ROS production during phagocytosis of opsonized zymosan (PMNs; over 2 h) | NOX2-dependent NETosis induced by fMLP, LPS, and cholesterol crystals ([1]; 0.5 μM, 4 h stimulation) | inhibition of PMA-induced NETosis ([1]; PMA) | fold more potent than LDC7559, inhibition of NETosis [1] | IC50 ([1]; human PMNs, PMA, read-out: IC50, inhibition of PMA-induced NETosis) | time of addition after PMA up to which NETosis was inhibited ([2]; compound added after PMA-induced activation) | ability to inhibit NETosis (activity range) ([1]; neutrophils) | spontaneous NETosis ([1]; no stimulus) | NETosis in response to PMA ([2]; 10 μM compound, compared with DMSO vehicle) |
| --- | --- | --- | --- | --- | --- | --- | --- | --- | --- | --- |
| CC(=O)Nc1ccc2c(c1)OCc1cc(-c3ccccc3C#CCCCO)nn1C2 [NA-11] | inhibited PMA-induced ROS production; also recorded: markedly suppressed, but did not completely prevent, PMA-induced ROS | kept ROS production at basal levels | inhibited NOX2-dependent NETosis | inhibiting NOX2-dependent NETosis induced by PMA | ~ 1,000 fold and 1,000 fold | 4 ± 0.5 nM | up to 1 h |  |  |  |
| CC(=O)Nc1ccc2c(c1)OCc1cc(-c3ccccc3)nn1C2 [NA-5] |  |  |  |  | ~ 10 fold |  |  |  |  |  |
| COc1ccccc1-c1cc2n(n1)Cc1ccc(NC(C)=O)cc1OC2 [LDC7559, reference compound] | inhibited PMA-induced ROS production |  |  | inhibited PMA-induced NETosis in a dose-dependent manner |  |  |  | low-micromolar range | did not prevent spontaneous NETosis | defective NETosis |
